For series [1], the system named is HFF. Put plainly: (§1) Cytotoxicity against human HFF cells. Format: cell-based. The settings on record: hff.
Series [2] deals with Human papillomavirus type 16. Nature of the series: Antiviral activity against HPV-16 infected in human W12-20850 cells after 4 days by non-radioactive hybrid capture technique. Format: functional, organism-based, Human papillomavirus 16.
Series [3] can be described thus: as §1. Format: cell-based. The settings on record: HFF cells.
Series [4] can be described thus: Half life in rat at 10 mg/kg administered as suspension. Format: ADME, organism-based. Also noted: dose 10 mg/kg. The settings on record: in vivo.
A short description of series [5]: Bioavailability in rat at 10 mg/kg administered as suspension. Format: ADME, organism-based. Conditions: in vivo.
Series [6] in a line: Clearance in rat at 10 mg/kg administered as suspension. Also on record: dose 10 mg/kg. Format: ADME, organism-based. Conditions: in vivo.
Series [7] in a line: Volume of distribution in rat at 10 mg/kg administered as suspension. Also on record: dose 10 mg/kg. Format: ADME, organism-based. Conditions: in vivo.
The nature of series [8]: Selectivity index, ratio of cytotoxicity against african green monkey Vero cells to antiviral activity against HPV-16. Format: toxicity, cell-based. Conditions: read-out: Selectivity Index.
A short description of series [9]: Selectivity index, ratio of cytotoxicity against human keratinocytes to antiviral activity against HPV-16. Format: toxicity. The settings on record: read-out: Selectivity Index.
Setting [10] is: Human papillomavirus 16, W12-20850, 96 h.

Data on 30 molecules can be found in ChEMBL document CHEMBL1136961, “Substituted tetrahydrocarbazoles with potent activity against human papillomaviruses” (Bioorg Med Chem Lett, 2009).

pIC50: −log10 of the molar value.

Usually CC50 stands for the concentration that lowers cell viability or growth by half. The term pIC50 denotes the IC50 on a negative log10 scale, so that one unit is a factor of ten. With `C[C@H](N[C@H]1CCCc2c1[nH]c1ccc(Br)cc21)c1ccccc1`, the CC50 in series [1] was found to be 28.5 µM. Besides, the pIC50 in series [2] (w12-20850) was 5.55.

With `Brc1ccc2[nH]c3c(c2c1)CCCC3NCCc1ccccc1` (racemic), half-maximal cytotoxicity in series [3] (CC50) was put at 11.4 µM. Besides, the pIC50 in series [2] (setting [10]) was 6.39.

`Cc1ccc2[nH]c3c(c2c1)CCCC3NCCO` (racemic): in series [3], the CC50 is greater than 30 µM. For the same molecule, the pIC50 in [2] (setting [10]) is less than 4.52.

`C[C@H](N[C@@H]1CCCc2c1[nH]c1ccc(Br)cc21)c1ccccc1` yielded a CC50 in [3] of 15 µM. The negative-log IC50 (pIC50) in series [2] (setting [10]) is 7.70.

For the molecule `CCNC1CCCc2c1[nH]c1ccc(C)cc21` (racemic), the 50% cytotoxic concentration (CC50) in series [3] was greater than 20 µM. In [2] (setting [10]), the negative-log IC50 (pIC50) is less than 4.70.

Molecule `COC(=O)c1ccc2[nH]c3c(c2c1)CCCC3NCc1ccccc1` (racemic) came in with a CC50 in series [3] of 44.5 µM. Also, the pIC50 in series [2] (setting [10]) is 4.71.

Molecule `Brc1ccc2[nH]c3c(c2c1)CCCC3NCc1ccccc1` (racemic) displayed a CC50 in series [3] of 18.8 µM. Moreover, the pIC50 in series [2] (setting [10]) was 6.82.

`Brc1cccc2c3c([nH]c12)C(NCc1ccccc1)CCC3` (racemic): the CC50 in series [3] is greater than 40 µM. In addition, the pIC50 in series [2] (setting [10]) is 4.94.

As for `Cc1ccc2[nH]c3c(c2c1)CCC[C@@H]3N[C@H](C)c1ccccc1`, the CC50 in series [3] worked out at 41 µM. In addition, the pIC50 in series [2] (setting [10]) is 5.15.

In series [3], `COc1ccc2[nH]c3c(c2c1)CCCC3NCc1ccccc1` (racemic) yielded a CC50 of 57.9 µM. Besides, the negative logarithm of the IC50 (pIC50) in [2] (setting [10]) is 5.12.

In turn, `FC(F)(F)c1ccc2[nH]c3c(c2c1)CCCC3NCc1ccccc1` (racemic) registered a CC50 in [3] greater than 100 µM. The pIC50 in [2] (setting [10]) was 6.00.

As for `Cc1ccc2[nH]c3c(c2c1)CCCC3NC(C)c1ccccc1` (racemic), in series [3], it took 40 µM to reach half-maximal cytotoxicity (CC50). The pIC50 in [2] (setting [10]) is 6.27.

In series [3], `CC(C)(NC1CCCc2c1[nH]c1ccc(Br)cc21)c1ccccc1` (racemic) showed a CC50 greater than 40 µM. Also, the pIC50 in series [2] (setting [10]) is 6.22.

For `Brc1ccc2c3c([nH]c2c1)C(NCc1ccccc1)CCC3` (racemic), in series [3], the CC50 was greater than 40 µM. For the same molecule, the pIC50 in [2] (setting [10]) was 4.95.

For the molecule `Cc1ccc2[nH]c3c(c2c1)CCC[C@H]3N[C@@H](C)c1ccccc1`, in series [3], the midpoint of cytotoxicity, the CC50, lay at 29 µM. The pIC50 in series [2] (setting [10]) is 6.70.

In series [3], `Fc1ccc2[nH]c3c(c2c1)CCCC3NCc1ccccc1` (racemic) had a CC50 of 35.9 µM. For the same molecule, the pIC50 in [2] (setting [10]) was 5.80.

In [3], `O=[N+]([O-])c1ccc2[nH]c3c(c2c1)CCCC3NCc1ccccc1` (racemic) returned a CC50 of 20.4 µM. Also, the pIC50 in series [2] (setting [10]) was 6.64.

In turn, `Brc1ccc2[nH]c3c(c2c1)CCCC3NC1Cc2ccccc2C1` (racemic) had a CC50 in [3] of 30.8 µM. Further, in [2] (setting [10]), the pIC50 was 6.92.

`Cc1ccc2[nH]c3c(c2c1)CCCC3NCc1ccccc1` (racemic) had a CC50 in [3] of 21.3 µM. In addition, the negative-log IC50 (pIC50) in [2] (setting [10]) was 5.72.

For orientation: half-life means the time needed for the level to fall by half in the phase considered. A word on the bioavailability: it is dose-corrected exposure relative to a reference, in per cent. The clearance is a measure of how efficiently the substance is removed, as volume per time. For orientation: Vd means the apparent volume that relates the amount in the body to the concentration in plasma or blood. As to `C[C@@H](N[C@@H]1CCCc2c1[nH]c1ccc(Br)cc21)c1ccccc1`, the CC50 in series [3] worked out at 9 µM. In series [4], this molecule showed a half-life of 4.4 h. In [5], this molecule yielded a bioavailability of 47%. The same molecule came in with a clearance in series [6] of 13.4 mL/min/kg. In addition, the pIC50 in series [2] (setting [10]) was 7.52. In series [7], this molecule came in with a volume of distribution (Vd) of 1.9 L/kg. For the same molecule, the selectivity ratio in series [8] was greater than 500; in series [9], greater than 300.

With `CCN(CC)CCNC1CCCc2c1[nH]c1ccc(C)cc21` (racemic), the CC50 in [3] was greater than 30 µM. Further, in series [2] (setting [10]), the pIC50 was less than 4.52.

Molecule `OCCNC1CCCc2c1[nH]c1ccc(Br)cc21` (racemic) yielded a CC50 in series [3] of 20.1 µM. Also, the pIC50 in series [2] (setting [10]) is 5.17.

Turning to `c1ccc(CNC2CCCc3c2[nH]c2ccccc32)cc1` (racemic), the midpoint of cytotoxicity in series [3], the CC50, lay at 40.4 µM. Moreover, the pIC50 in series [2] (setting [10]) is 5.17.

Regarding `Cc1ccc2[nH]c3c(c2c1)CCCC3NC1Cc2ccccc2C1` (racemic), half-maximal cytotoxicity in series [3] (CC50) was put at 40 µM. For the same molecule, the pIC50 in [2] (setting [10]) was 6.33.

`Cc1ccc2[nH]c3c(c2c1)CCCC3NCCc1ccccc1` (racemic) gave a CC50 in series [3] of 13.5 µM. Moreover, the pIC50 in series [2] (setting [10]) was 5.57.

The molecule `Cc1ccc2[nH]c3c(c2c1)CCC[C@@H]3N[C@@H](C)c1ccccc1` displayed a CC50 in [3] of 36 µM. In addition, in series [2] (setting [10]), the pIC50 was 5.17.

Consider `Cc1ccc2[nH]c3c(c2c1)CCC[C@H]3N[C@H](C)c1ccccc1`, for which it took 29 µM to reach half-maximal cytotoxicity in series [3] (CC50). Besides, the pIC50 in [2] (setting [10]) was 6.52.

`C[C@@H](N[C@H]1CCCc2c1[nH]c1ccc(Br)cc21)c1ccccc1` registered a CC50 in series [3] greater than 30 µM. Further, the pIC50 in [2] (setting [10]) is less than 6.30.

For `C[C@H](N[C@H]1CCCc2c1[nH]c1ccc(Br)cc21)c1ccccc1` (racemic), in series [3], the CC50 amounted to 22.9 µM. The pIC50 in series [2] (w12-20850) is 7.52.

In the case of `Clc1ccc2[nH]c3c(c2c1)CCCC3NCc1ccccc1` (racemic), in [3], half-maximal cytotoxicity (CC50) was put at 27.9 µM. The negative logarithm of the IC50 (pIC50) in [2] (setting [10]) is 6.48.
